Results on ten compounds are retold here after US20230381205A1, “COMPOSITIONS AND METHODS FOR TREATING NEURONAL DISORDERS WITH CANNABINOIDS” (INMED PHARMACEUTICALS INC., priority 2020, published 2023).

One data set concerns CB1R. The data set is described as follows: Changes in CB1 receptor expression and translocation. It is filed as cell-based. The conditions noted are these: CBGA 5 μM, 10 μM, dose-dependent; FIG. 11. From the text: FIG. 11 Changes in receptor expression.
The test system of data set [1] is differentiated SH-SY5Y cells. Put plainly: Neurite length / neuritogenesis in differentiated SH-SY5Y cells. It is filed as cell-based, human. The conditions noted are these: 24 hours post treatment, FIG. 14 (B). As for the experimental part:
FIG. 12 provides representative photomicrographs illustrating CBGA mediated changes in neurite elongation and branching in differentiated SH-SY5Y cells in a dose dependent manner. […] FIG. 12 also provides a histogram showing gradual changes in neurite length following treatment with CBGA.
(§1) FIG. 14 Morphological characterization of CBGA, THC and CBN mediated changes in differentiated SH-SY5Y cells. SH-SY5Y cells were differentiated with RA (10 μM) for 5 days as indicated. (A) Representative confocal photomicrographs showing changes in the cellular distribution of Tuj1 in RA induced differentiated SH-SY5Y cells following treatment with CBGA, THC and CBN. (B) Histogram showing the effect of CBGA, CBN, THC on neurite length.

For data set [2], the system named is differentiated SH-SY5Y human neuronal cells. Put plainly: MTT assay: cytotoxicity of the substance alone (primary screen, no added insult). The following applies: for toxicity in primary screen / Cell Death (%) vs Vehicle Control: FIG. 1; for Cell Death (%) vs Vehicle Control: 15 μM, pre-screen. The format is cell-based. As to the method: (§2) Cell Culture and Differentiation: The SH-SY5Y human neuronal cell line was derived from neuroblastoma established from a metastatic bone tumor (patient with neuroblastoma). The cells were maintained in DMEM:F12 culture medium supplemented with 10% FBS and 1% Antibiotic-Antimycotic penicillin/streptomycin (growth medium) at 37° C. in a humidified atmosphere of 5% CO2. To induce neuronal differentiation of SH-SY5Y cells, culture media was replaced by a growth medium containing Retinoic Acid (RA) for 4-5 days at 37° C. in a humidified atmosphere of 5% CO2.
(§3) Compounds and Dosing Formulations: Selected cannabinoids: CBD, CBDA, CBC, CBG, CBGA, CBN, CBND and Δ^9-THC were procured from Cayman Chemicals and TRC. Ethanol (100%) was used as the solvent to prepare 1 and 10 mM stock solutions. Treatment concentrations for CBGA were prepared at 0.5 μM, 1.5 μM, 5 μM, 10 μM, 15 μM, 20 μM. Treatment concentrations for CBD, CBDA, CBC, CBN, CBND and Δ^9-THC were prepared at 0.5, 1.5, 5 and for CBG at 0.5 μM, 1.5 μM, 5 μM, 10 μM, 15 μM. Treatments were prepared directly in the control medium (DMEM:F12+5% FBS+1% Antibiotic-Antimycotic) by using appropriate stock solutions.
(§4) Evaluation of Cytotoxicity and Neuroprotection: Evaluation of cannabinoids neuroprotection and cytotoxicity on differentiated SH-SY5Y human neuronal cells was carried out by MTT (3-(4,5-dimethylthiazol-2-yl)-2,5-diphenyltetrazolium bromide) assay. Initially, cannabinoid cytotoxicity and neuroprotection were evaluated in a primary screen assay without the presence of cytotoxicity inducing insult agents. […] The Retinoic Acid (RA) differentiated SH-SY5Y neuronal cells were seeded onto 96-well plates (10,000 cells/well) in DMEM:F12 complete medium. Cells were differentiated for 4-5 days in the presence of RA.
(§5) MTT Assay: For the MTT assay, differentiated SH-SY5Y neuronal cells were treated with cannabinoids at various concentrations for 72 hrs in the presence of STSR at 75 nM, 100 nM, 150 nM and 200 nM or for 24 hrs in the presence of […] at 5 μM, respectively and processed to determine cytotoxicity. Briefly, 5 mg/mL of methylthiazolyldiphenyl-tetrazolium bromide (Sigma-Aldrich) stock solution was prepared in PBS. Following treatment of SH-SY5Y neuronal cells with cannabinoids for 72 hrs, the cells were incubated with 20 μL of MTT stock solution in 200 μL DMEM for 2 hrs at 37° C. Following subsequent washes with PBS, 200 μL of isopropanol was added to each well. The resulting change in color from dissolving formazan salt was immediately quantified using a spectrophotometer (BMG Labtech) at a wavelength of 570 nm. […] The results are illustrated in FIGS. 1-7.

Data set [3] relates to differentiated SH-SY5Y cells. The data set is described as follows: Immunocytochemistry of TuJ1 and neuronal morphology. The conditions noted are these: 5 μM, FIG. 14. It is filed as cell-based, human. As to the method:
as §1

The subject of data set [4] is differentiated SH-SY5Y human neuronal cells. Put plainly: MTT assay: neuroprotection from Staurosporin (STSR) induced cytotoxicity. The format is cell-based. The following applies: for neuroprotection against STSR-induced cytotoxicity: 0.5 μM, 1.5 μM and 5 μM with STSR 75 nM, 72 hrs; for neuroprotection against STSR-induced cytotoxicity / Cell Death (%) vs STSR at 75 nM, significance: FIG. 3; for Cell Death (%) vs STSR at 75 nM, significance: 5 μM with STSR 75 nM, compared to STSR-alone, One-Way ANOVA. As for the experimental part: as §2, §3, §4, §5

Data set [5] concerns differentiated SH-SY5Y cells. Put plainly: Confocal immunofluorescence of MAP2 and neurite morphology. It is filed as cell-based, human. The conditions noted are these: Aβ1-42 at 5 μM alone, FIG. 16. As for the experimental part:
SH-SY5Y cells were differentiated with RA (10 μM) for 5 days as indicated.
Accordingly, the effect of CBGA on the expression of MAP-2 was tested.

A further data set relates to BAX. The data set is described as follows: Western blot of BAX (pro-apoptotic marker). It is filed as cell-based, human. The conditions noted are these: Aβ1-42 (5 μM) alone, FIG. 9. As to the method:
(§6) For Western blot analysis, control and the treated cells were harvested and lysed in cold lysis buffer (150 mM NaCl, 50 mM Tris-HCl, 1% Triton X-100, 0.1% SDS, 0.5% Sodium deoxycholate, and 1% protease-phosphatase inhibitor mixture). The supernatants were collected and protein concentrations were determined using Bio-Rad protein assay (Bio-Rad Laboratories). Whole cell lysates (10 μg) were subjected to 10% SDS-polyacrylamide electrophoresis and transferred to nitrocellulose membrane. The membranes were blocked with 5% skim milk in TBS-T (Tris-buffered saline with 0.05% Tween-20) for 1 h at RT and blotted overnight in the presence of monoclonal anti-mouse MAP2 (1:1000, Sigma, cat. no. M1406), Tau (1:1000, Invitrogen, cat. no. AHB0042), TUJI (1:5000, BioLegend, cat. no. MMS-435P), BAX (1:1000, Cell signaling, cat. no. 2772) and rabbit polyclonal total and phosphorylated BCL (1:1000, Cell signaling, antibodies #2827 and 2870). The membranes were washed and incubated for 1 h in RT with either horseradish peroxidase (HRP)-conjugated goat anti-mouse (1:2000) or goat anti-rabbit antibodies (1:2000) (Jackson Lab). The membranes were washed and developed using chemiluminescence detection kit (Millipore, Billerica, MA, USA) on Alpha Innotech FluorChem 8800. β-Actin or Vinculin was used as a loading control. […]
(In western blotting, separated proteins are transferred to a membrane and probed.)

For another data set, the system named is BCL2. The data set is described as follows: Western blot of phosphorylated BCL2 (anti-apoptotic marker). The format is cell-based, human. The following applies: Aβ1-42 insult alone, FIG. 10. As for the experimental part:
as §6

For data set [6], the system named is differentiated SH SY5Y cells treated with Aβ1-42. Put plainly: Receptor antagonist study: reversal of CBGA mediated protection from Aβ toxicity. It is filed as cell-based, human. The following applies: CB2 antagonist at 1.5 μM (lowest concentration tested), with CBGA + Aβ1-42, FIG. 8. As for the experimental part: FIG. 8 illustrates the effect of a CB2 antagonist has on the reversal of CBGA mediated protection of Aβ toxicity. The CB2 antagonist […] has a more prominent effect on the reversal of CBGA mediated protection. […] CB2 antagonist has significant effect on the reversal of CBGA mediated protection at lower concentration. p<0.0001 for Aβ compared to vehicle control. p<0.0001 for all groups compared to CBGA ([…])+Aβ.

Data set [7] relates to differentiated SH-SY5Y human neuronal cells. Put plainly: MTT assay: neuroprotection from Aβ1-42 induced cytotoxicity. It is filed as cell-based. As for the experimental part: as §2, §3, §4, §5
In general terms: Formazan colour is commonly taken as a measure of viable cells.

Turning to `CCCCCc1cc(O)c2c(c1)OC(C)(C)[C@@H]1CCC(C)=C[C@@H]21` [Δ9-THC, Δ^9-tetrahydrocannabinol], the “CB1R expression and translocation” value in the data set on CB1R is reported as “did not alter the expression of CB1R”. Also, the neurite length result in data set [1] was “significantly decreased the neurite length”. For the same compound, the “toxicity in primary screen” value in [2] (5 μM to 15 μM) and in [2] (about 0.5 μM to 1.5 μM) was “high levels of toxicity” throughout. Moreover, the “Cell Death (%) vs Vehicle Control” value in [2] is given as “promote cell death”. The “neuronal morphology and neurite outgrowth, TuJ1 staining” value in data set [3] was “disrupted neuronal morphology and neurite outgrowth”.

For `C=C(C)[C@@H]1CCC(C)=C[C@H]1c1c(O)cc(CCCCC)cc1O` [CBD, cannabidiol], the “neuroprotection against STSR-induced cytotoxicity” value in data set [4] was “did not protect”. Moreover, in data set [4], the “Cell Death (%) vs STSR at 75 nM, significance” value was “statistically significant cytotoxicity”. Besides, the “toxicity in primary screen” value in data set [2] (5 μM to 15 μM) and in data set [2] (about 0.5 μM to 1.5 μM) was “high levels of toxicity” in each case. In data set [2], the “Cell Death (%) vs Vehicle Control” value is on record as “promote cell death”.

Consider `CN[C@@H]1C[C@H]2O[C@@](C)([C@@H]1OC)n1c3ccccc3c3c4c(c5c6ccccc6n2c5c31)C(=O)NC4` [STSR, Staurosporin], for which the cell death is approximately 34% in data set [2] (STSR 75 nM, 72 hrs, vs vehicle control, FIG. 2); approximately 66% in [2] (STSR 200 nM, 72 hrs, vs vehicle control, FIG. 2); approximately 48% in [2] (STSR-insult alone at 75 nM, FIG. 5).

For the compound `CCCCCc1cc(O)c2c(c1)OC(C)(C)c1ccc(C)cc1-2` [CBN, cannabinol], in data set [4], the “neuroprotection against STSR-induced cytotoxicity” value is given as “did not protect” and the “Cell Death (%) vs STSR at 75 nM, significance” value is on record as “statistically significant cytotoxicity”. Further, in the data set with CB1R, the “CB1R expression and translocation” value was “did not alter the expression of CB1R”. Also, in [1], the neurite length entry was “significantly decreased the neurite length”. Further, in data set [2] (5 μM to 15 μM), the “toxicity in primary screen” value is reported as “high levels of toxicity”. Further, in [2], the “Cell Death (%) vs Vehicle Control” value is given as “promote cell death”. The “neuronal morphology and neurite outgrowth, TuJ1 staining” value in data set [3] was “loss of neurite outgrowth and elongation”.

As for “Aβ1-42: Amyloid-beta (Aβ1-42) peptide, insult-inducing cytotoxic agent”, the neurite morphology result in [5] is recorded as “damaged neurite outgrowth”. Further, in [2] (Aβ1-42 insult alone at 5 μM, 24 hrs, FIG. 7), the cytotoxicity is 23-52%. For the same compound, the BAX expression result with BAX is listed as “induced upregulation”. The BCL2 expression result in the data set with BCL2 is “downregulation”.

Regarding `C=C(C)c1ccc(C)cc1-c1c(O)cc(CCCCC)cc1O` [CBND], in data set [4], the “neuroprotection against STSR-induced cytotoxicity” value is listed as “did not protect” and the “Cell Death (%) vs STSR at 75 nM, significance” value is given as “statistically significant cytotoxicity”. The “toxicity in primary screen” value in data set [2] (5 μM to 15 μM) is on record as “high levels of toxicity”. Also, in data set [2], the “Cell Death (%) vs Vehicle Control” value is recorded as “promote cell death”.

For `C=C(C)[C@@H]1CCC(C)=C[C@H]1c1c(O)cc(CCCCC)c(C(=O)O)c1O` [CBDA, cannabidiolic acid], the “toxicity in primary screen” value in data set [2] (5 μM to 15 μM) and in data set [2] (about 0.5 μM to 1.5 μM) was “high levels of toxicity” in each case. For the same compound, in data set [2], the “Cell Death (%) vs Vehicle Control” value is listed as “promote cell death”.

As to `CCCCCc1cc(O)c2c(c1)OC(C)(CCC=C(C)C)C=C2` (stereo not drawn) [CBC, cannabichromene], the “toxicity in primary screen” value in [2] (5 μM to 15 μM) and in [2] (about 0.5 μM to 1.5 μM) was “high levels of toxicity” in each case. Further, the “Cell Death (%) vs Vehicle Control” value in [2] was “promote cell death”.

With `Cc1ccc(Cn2nc(C(=O)N[C@@H]3C(C)(C)[C@@H]4CC[C@@]3(C)C4)cc2-c2ccc(Cl)c(C)c2)cc1` [SRI 14528, 5-(4-chloro-3-methylphenyl)-1-[(4-methylphenyl)methyl]-N-[(1S,2S,4R)-1,3,3-trimethylbicyclo[2.2.1]heptan-2-yl]-1H-pyrazole-3-carboxamide], the “reversal of CBGA mediated neuroprotection” value in data set [6] is on record as “completely reversed”.

On to `CCCCCc1cc(O)c(C/C=C(\C)CCC=C(C)C)c(O)c1` [CBG, cannabigerol], for which, in data set [4] (5 μM, 10 μM and 15 μM with STSR 75 nM, FIG. 6), the “protection from STSR induced cytotoxicity” value is “did not protect”. The “Cell Death (%) vs STSR, significance” value in data set [4] (15 μM with STSR 75 nM, p=0.0002, FIG. 6) is on record as “statistically significant cytotoxicity”. The “toxicity in primary screen” value in data set [2] (5 μM to 15 μM) is recorded as “high levels of toxicity”. Further, the “Cell Death (%) vs Vehicle Control” value in data set [2] is “promote cell death”. In [7] (1.5 μM, 5 μM and 10 μM with Aβ1-42 5 μM, FIG. 7), the “protection from Aβ1-42 induced insult” value is “did not protect”. In data set [7] (10 μM with Aβ1-42 5 μM, p<0.0001, FIG. 7), the “cytotoxicity with Aβ1-42” value is listed as “significant cytotoxicity”.
